# From patent US10765114B2, “4-amino-6-(pyridyl and 2-substitutedphenyl)-picolinates and 6-amino-2-(pyridyl and 2-substitutedphenyl)-pyrimidine-4-carboxylates and their use as herbicides” (Dow AgroSciences LLC, priority 2013, dated 2020)
# Like-named read-outs stand apart in the source and are kept apart here.
# Legend:
# [1] = tested on: Key Broadleaf Weed and Crop Species; test: Post-Emergent Test II (Table 5); assay type: in vivo; details: post-emergence, 336 h; for pest or weed control at 70 g/ha: application rate 70 (kg ai/ha; footnote: g ai/ha); for pest or weed control at 140 g/ha: application rate 140 (kg ai/ha; footnote: g ai/ha)
# How it was run: (§1)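 Visual injury ratings (0 = no injury, 100 = complete kill) were taken 14 days after treatment relative to untreated plants. Seedlings at the first or second true leaf stage received an overhead spray at 187 L/ha, and solvent-blank sprayed plants served as controls.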
# [2] = tested on: Key Grass and Sedge Weeds as well as Grass Crops; test: Post-Emergent Test II (Table 6); assay type: in vivo; details: post-emergence, 336 h, 14 days after application; for pest or weed control at 70 g/ha: 70 g ai/ha; for pest or weed control at 140 g/ha: 140 g ai/ha
# How it was run: as §1
# [3] = Abutilon theophrasti, ABUTH: velvetleaf (Abutilon theophrasti), read-out: Visual Growth Reduction (%) 14 Days After Application ABUTH
# [4] = Amaranthus retroflexus, AMARE: redroot pigweed (Amaranthus retroflexus), read-out: Visual Growth Reduction (%) 14 Days After Application AMARE
# [5] = Brassica napus, BRSSS: oilseed rape, canola (Brassica napus), read-out: Visual Growth Reduction (%) 14 Days After Application BRSSS
# [6] = Chenopodium album, CHEAL: lambsquarters (Chenopodium album), read-out: Visual Growth Reduction (%) 14 Days After Application CHEAL
# [7] = Euphorbia heterophylla, EPHHL: wild poinsettia (Euphorbia heterophylla), read-out: Visual Growth Reduction (%) 14 Days After Application EPHHL
# [8] = Helianthus annuus, HELAN: sunflower (Helianthus annuus), read-out: Visual Growth Reduction (%) 14 Days After Application HELAN
# [9] = Viola tricolor, VIOTR: wild pansy (Viola tricolor), read-out: Visual Growth Reduction (%) 14 Days After Application VIOTR
# [10] = CYPSS, read-out: Visual Growth Reduction (%) 14 Days After Application CYPSS
# [11] = DIGSA: crabgrass (Digitaria sanguinalis), read-out: Visual Growth Reduction (%) 14 Days After Application DIGSA
# [12] = ECHSS, read-out: Visual Growth Reduction (%) 14 Days After Application ECHSS
# [13] = ORYSS (crop), read-out: Visual Growth Reduction (%) 14 Days After Application ORYSS
# [14] = SETFA: giant foxtail (Setaria faberi), read-out: Visual Growth Reduction (%) 14 Days After Application SETFA
# [15] = SORVU: grain sorghum (Sorghum vulgare), read-out: Visual Growth Reduction (%) 14 Days After Application SORVU
# [16] = TRZSS (crop), read-out: Visual Growth Reduction (%) 14 Days After Application TRZSS
# [17] = ZEAMX: maize, corn (Zea mays), read-out: Visual Growth Reduction (%) 14 Days After Application ZEAMX
melting point [°C],SMILES,"pest or weed control at 70 g/ha [1, 3] [%]","pest or weed control at 140 g/ha [1, 3] [%]","pest or weed control at 70 g/ha [1, 5] [%]","pest or weed control at 140 g/ha [1, 5] [%]","pest or weed control at 70 g/ha [1, 6] [%]","pest or weed control at 140 g/ha [1, 6] [%]","pest or weed control at 70 g/ha [1, 7] [%]","pest or weed control at 140 g/ha [1, 7] [%]","pest or weed control at 70 g/ha [1, 8] [%]","pest or weed control at 140 g/ha [1, 8] [%]","pest or weed control at 70 g/ha [1, 9] [%]","pest or weed control at 140 g/ha [1, 9] [%]","pest or weed control at 70 g/ha [2, 10] [%]","pest or weed control at 140 g/ha [2, 10] [%]","pest or weed control at 70 g/ha [2, 11] [%]","pest or weed control at 140 g/ha [2, 11] [%]","pest or weed control at 70 g/ha [2, 12] [%]","pest or weed control at 140 g/ha [2, 12] [%]","pest or weed control at 70 g/ha [2, 13] [%]",further results
160 to 162,"Cc1c(F)c(Cl)cc(F)c1-c1cc(N)c(Cl)c(C(=O)O)n1 [Compound 92, 4-amino-3-chloro-6-(4-chloro-3,6-difluoro-2-methylphenyl)picolinic acid]",95 to 100,95 to 100,95 to 100,95 to 100,95 to 100,95 to 100,0 to 29,30 to 44,95 to 100,95 to 100,60 to 74,75 to 84,0 to 29,0 to 29,0 to 29,0 to 29,0 to 29,0 to 29,0 to 29,"pest or weed control at 70 g/ha [1, 4]: 95 to 100%; pest or weed control at 140 g/ha [1, 4]: 95 to 100%; pest or weed control at 140 g/ha [2, 13]: 0 to 29%; pest or weed control at 70 g/ha [2, 14]: 0 to 29%; pest or weed control at 140 g/ha [2, 14]: 0 to 29%; pest or weed control at 70 g/ha [2, 15]: 0 to 29%; pest or weed control at 140 g/ha [2, 15]: 0 to 29%; pest or weed control at 70 g/ha [2, 16]: 30 to 44%; pest or weed control at 140 g/ha [2, 16]: 60 to 74%; pest or weed control at 70 g/ha [2, 17]: 0 to 29%; pest or weed control at 140 g/ha [2, 17]: 0 to 29%"
192 to 195,COC(=O)c1nc(-c2ccc(Cl)nc2F)nc(N)c1Cl [Compound 94],0 to 29,30 to 44,0 to 29,0 to 29,60 to 74,75 to 84,0 to 29,0 to 29,30 to 44,30 to 44,0 to 29,0 to 29,0 to 29,0 to 29,0 to 29,0 to 29,0 to 29,0 to 29,0 to 29,"pest or weed control at 140 g/ha [2, 13]: 0 to 29%; pest or weed control at 70 g/ha [2, 14]: 0 to 29%; pest or weed control at 140 g/ha [2, 14]: 0 to 29%; pest or weed control at 70 g/ha [2, 15]: 0 to 29%; pest or weed control at 140 g/ha [2, 15]: 0 to 29%; pest or weed control at 70 g/ha [2, 16]: 0 to 29%; pest or weed control at 140 g/ha [2, 16]: 0 to 29%; pest or weed control at 70 g/ha [2, 17]: 0 to 29%; pest or weed control at 140 g/ha [2, 17]: 0 to 29%"
